Data on seven compounds can be found in patent US9127301B2, “Method of detecting the presence of polycyclic aromatic hydrocarbons” (BIOO SCIENTIFIC CORPORATION, priority 2012, dated 2015).

Test [1] has as its target T1, NDO/NahB/NahC (Pseudomonas putida, UniProt P0A110).
T1 construct: made in house; host or cells: E. coli JM109 (DE3) (pDTG141) for NDO; E. coli BL21 Star (DE3) for NahB and NahC
The test is described as follows: Coupled naphthalene dioxygenase/NahB/NahC colorimetric assay. The class given is biochemical. The source says: This disclosure relates to a method that uses microbial enzymes which degrade polyaromatic hydrocarbons to detect polycyclic aromatic hydrocarbons (PAH) in food and environmental samples. The first step in PAH degradation uses a PAH dioxygenase (PAHDO) enzyme such as naphthalene 1,2-dioxygenase (NDO) or biphenyl dioxygenase (BDO) to convert the PAH compound to PAH-(cis)-diol in an NADH- or NADPH-dependent manner.
The first reaction is catalyzed by the 1,2-dihydroxy-1,2-dihydronaphthalene dehydrogenase enzyme (NahB), while the second reaction is catalyzed by the enzyme 1,2-dihydroxynaphthalene dioxygenase (NahC). These enzymes are both derived from the bacteria Pseudomonas putida.
When these enzymes are used in succession, they function sequentially to convert colorless PAH compounds into a readily-detectable visible product class known as PAH chromene compounds.
(§1) 2 tubes each of NahB, Nahc, and NDO enzymes (1.7 ml aliquotes) were thawed from −20 C along with 2.6 mM NADH in water. 2.5 ml each of the NahC and NahB enzymes were desalted using PD-10 gel filtration and buffer exchanged into 20 mM Tris-Cl pH 8.5 at the same time. Once all of the reagents were thawed and desalted, positive and negative naphthalene reaction were made containing 127 ul each of NahB, NahC, and NDO with 20 ppm naphthalene in dimethylformamide (negative reactions contained only equal amounts dimethylformamide) and 0.133 mM NADH final concentration with a final reaction volume of 405 ul. The reaction was run at 25° C. for 2 hours and the sample absorbance was measured using a BioTek Synergy2 plate reader in the 320-640 nm wavelength range. […] Reactions for all PAH's conducted in the same, or a very similar format, depending on the volume of sample in the reaction. FIG. 4 depicts a spectrophotometric graph showing the absorbance caused by the presence of naphthalene placed in the above NDO/NahB/NahC assay.

Test [2] addresses T1, NDO/NahB/NahC. The test is described as follows: Colorimetric detection of fluorene in spiked clam samples, NDO/NahB/NahC assay. In kind it is biochemical. The note with it: clam homogenate spiked to 80 ppm fluorene, dichloromethane extraction, 10 μl of 200 ppm DMF solution in 411 μl reaction, 2 hr, 25° C. As for the experimental part:
as §1
Approximately 25 g of clams were homogenized using a blender; a 2 g sample of this 25 g preparation was spiked to 80 ppm fluorene. […] The reaction was run for 2 hr at 25° C. and then read on a BioTek Synergy2 plate reader from 320-640 nm. FIG. 5 depicts the absorbance of fluorene spiked clam samples in the NDO/NahB/NahC assay.

T1 sequence (P0A110 whole entry): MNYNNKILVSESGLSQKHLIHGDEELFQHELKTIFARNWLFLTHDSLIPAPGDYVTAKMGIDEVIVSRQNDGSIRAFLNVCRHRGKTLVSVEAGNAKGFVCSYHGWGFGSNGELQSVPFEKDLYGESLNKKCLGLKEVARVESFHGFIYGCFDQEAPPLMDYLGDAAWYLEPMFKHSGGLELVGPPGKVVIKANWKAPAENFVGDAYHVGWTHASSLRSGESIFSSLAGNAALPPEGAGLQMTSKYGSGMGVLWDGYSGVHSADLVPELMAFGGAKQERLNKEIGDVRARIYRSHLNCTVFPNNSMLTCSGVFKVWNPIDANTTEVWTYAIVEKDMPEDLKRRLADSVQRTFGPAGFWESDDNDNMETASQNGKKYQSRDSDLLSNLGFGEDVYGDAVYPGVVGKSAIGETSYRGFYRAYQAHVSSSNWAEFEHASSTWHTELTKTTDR
T1 sequence (P0A112 whole entry, further chain): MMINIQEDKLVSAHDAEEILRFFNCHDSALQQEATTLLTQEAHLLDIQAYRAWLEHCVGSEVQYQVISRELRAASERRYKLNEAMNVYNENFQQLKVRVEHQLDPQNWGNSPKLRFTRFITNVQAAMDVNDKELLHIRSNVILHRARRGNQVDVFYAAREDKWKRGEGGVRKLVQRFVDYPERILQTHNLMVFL

In the case of `c1ccc2cc3ccccc3cc2c1` [anthracene], at NDO/NahB/NahC [1], the “detection of PAH compound by the colorimetric assay” value (shortened to “detection of PAH compound”) was “detect”.
On the same count and under the same terms, the result for `c1ccc2c(c1)cc1ccc3cccc4ccc2c1c34` [benz(a)pyrene] reads “detect”; that for `c1ccc(-c2ccccc2)cc1` [biphenyl], “detect”; that for `c1ccc2c(c1)[nH]c1ccccc12` [carbazole], “detect”.
As to `c1ccc2c(c1)Cc1ccccc1-2` [fluorene], the “detection of PAH compound” value at NDO/NahB/NahC [1] is recorded as “detect”. For the same compound, the “absorbance at 390 nm versus buffer control or post-extraction spike” value on NDO/NahB/NahC [2] was “slightly higher”.
For `c1ccc2ccccc2c1` [naphthalene], the “detection of PAH compound” value on NDO/NahB/NahC [1] is listed as “detect”. Also, the “absorbance at 370 nm versus negative control reaction” value at NDO/NahB/NahC [1] (20 ppm naphthalene in dimethylformamide, 0.133 mM NADH, 25° C., 2 hours) is “significantly higher”.
Regarding `c1ccc2c(c1)ccc1ccccc12` [phenanthrene], the “detection of PAH compound” value on NDO/NahB/NahC [1] was “detect”.
